Experimental findings from patent US9567318B2, “Substituted pyrimidine compounds and uses thereof” (Memorial Sloan-Kettering Cancer Center, priority 2009, dated 2017) are described below.

Molecules are shown by their SMILES.

One assay has as its system MDA-MB-231 cells. In words: Cell invasion assay (Boyden chamber Matrigel). The following applies: 1 μM pre-treatment 24 h, 20 h migration. It is filed as cell-based, human. The method, then:
FIG. 12. YK5 affects the major hallmarks of cancer: inhibits proliferation and invasiveness and arrests cancer cells in the cell cycle. (a) The indicated cancer cells were incubated with increasing concentrations of inhibitors and growth over 72 h was assessed. Y-axis values below 0% represent cell death of the starting population. Drugs were assayed in triplicate. (b) Mice (n=5) bearing MDA-MB-468 subcutaneously (s.c.) xenografted tumors that reached a volume of approximately 100-200 mm^3, were administered i.t. YK5 or vehicle as described in Methods. Tumor volume (mm^3) was estimated from caliper measurements. (c) Cells were treated for 24 h with indicated concentrations of YK5. DNA content was analyzed by propidium iodide staining and flow cytometry (left), whereas proteins by western blotting (right). (d) Hsp70 client proteins isolated by YK55-beads from SKBr3 and MDA-MB-468 extracts (500 μg) were analyzed by western blotting. […] (e) MDA-MB-231 breast cancer cells were treated for 24 h with YK5 (1 μM) and protein extracts were subjected to immunoblotting (upper) or pre-treated for 24 h with vehicle or YK5, and viable cells able to migrate through Matrigel over a 20 h period were quantified and data graphed (lower). […]
Cell Invasion Assay. […] In summary, cells were stained with tryptan blue and counted manually with a hemacytometer. […] Cells in ten fields per membrane were counted at ×100 objective.

The target in the next assay is T1, Human Hsc70 (Homo sapiens, UniProt P11142).
T1 construct: made in house
T1 sequence (P11142 whole entry): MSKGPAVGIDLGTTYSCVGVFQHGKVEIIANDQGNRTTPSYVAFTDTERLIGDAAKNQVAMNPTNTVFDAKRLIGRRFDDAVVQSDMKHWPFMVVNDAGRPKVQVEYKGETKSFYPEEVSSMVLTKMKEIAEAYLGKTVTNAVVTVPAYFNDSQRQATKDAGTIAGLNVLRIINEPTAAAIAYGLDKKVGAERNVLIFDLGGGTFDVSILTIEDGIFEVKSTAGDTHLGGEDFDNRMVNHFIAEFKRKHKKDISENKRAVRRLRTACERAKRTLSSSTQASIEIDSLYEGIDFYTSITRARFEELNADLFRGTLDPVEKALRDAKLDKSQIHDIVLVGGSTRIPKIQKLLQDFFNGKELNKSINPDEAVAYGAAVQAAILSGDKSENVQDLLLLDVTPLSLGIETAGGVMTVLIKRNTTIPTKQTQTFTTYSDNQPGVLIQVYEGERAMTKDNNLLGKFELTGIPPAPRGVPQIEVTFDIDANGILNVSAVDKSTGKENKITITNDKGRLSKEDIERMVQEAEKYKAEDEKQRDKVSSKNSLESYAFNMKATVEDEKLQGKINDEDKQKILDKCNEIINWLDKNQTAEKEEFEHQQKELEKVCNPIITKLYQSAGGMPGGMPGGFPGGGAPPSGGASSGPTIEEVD
In words: Hsc70 ATPase activity. To be noted: 100 μM, Hsc70 with co-chaperones, 30° C. It is filed as biochemical. The method, then: FIG. 6. YK5 inhibits core biochemical functions of Hsp70s and disrupts the Hsp90/Hsp70 interaction. a) Refolding of denatured luciferase by Hsc70 and DJA2 at 30° C. was measured for the indicated times in the presence of YK5 (100 μM) or vehicle (left), or at 60 min in the presence of indicated concentrations of YK5 (right). b) Hsc70 ATPase rates were measured for reactions at 30° C. with the indicated combinations of Hsc70 and co-chaperones in the presence of vehicle (DMSO) or YK5 (100 μM). ADP production was monitored by thin layer chromatography separation of radiolabeled ADP from ATP and phosphorimaging analysis (lower). […] Proteins isolated with anti-Hsp90 and Hsp70s antibodies (IP: Hsp90 or Hsp70), or present in the cell extract (Lysate) were analyzed by WB. […] Proteins were applied to a native gel and analyzed by immunoblotting. […]
Hsc70 ATPase Activity and Luciferase Refolding. Human Hsc70, DJA1/DNAJA1, DJA2/DNAJA2 and Hsp110/Hsp105/HSPH1 were purified and analyzed. […] Samples at time points were terminated with 37.5 mM EDTA and analyzed by thin layer chromatography on polyethylene-imine cellulose (Mallinckrodt Baker) developed in 0.5 M LiCl and 0.5 M formic acid. The ADP produced was determined by image phosphor quantitation and the linear enzymatic rates (Vmax) were calculated by regression analysis. […]

As to `C=CC(=O)Nc1cc(N)nc(Sc2c(OC)nc(N3CCN(C)CC3)nc2OC)n1` [YK5, N-(6-amino-2-(4,6-dimethoxy-2-(4-methylpiperazin-1-yl)pyrimidin-5-ylthio)pyrimidin-4-yl)acrylamide], the “invasion through Matrigel” value in the assay with MDA-MB-231 cells was “inhibited the ability of MDA-MB-231 cells to invade through Matrigel”. For the same compound, on Human Hsc70, the “stimulated ATPase rate of Hsc70” value is “partially inhibited the stimulated ATPase rate of Hsc70”.
